Publication PMC9486805, “Identification of a Phage Display-Derived Peptide Interacting with the N-Terminal Region of Factor VII Activating Protease (FSAP) Enables Characterization of Zymogen Activation” (ACS Chemical Biology, 2022)
Blank lines part the entries; values can stand above or below the molecule they belong to. Bridge positions count the residues as written; N and C are the ends. Ends that are not written are not given here.

What was measured:
pro-FSAP in human plasma [1] = target: T1, pro-FSAP in human plasma (Homo sapiens, UniProt Q14520); conditions: NNKC9/41; cited from earlier work
T1 construct: from tissue; host or cells: human hirudin or citrate plasma from healthy donors, diluted 1:12
T1 sequence (Q14520 24-560): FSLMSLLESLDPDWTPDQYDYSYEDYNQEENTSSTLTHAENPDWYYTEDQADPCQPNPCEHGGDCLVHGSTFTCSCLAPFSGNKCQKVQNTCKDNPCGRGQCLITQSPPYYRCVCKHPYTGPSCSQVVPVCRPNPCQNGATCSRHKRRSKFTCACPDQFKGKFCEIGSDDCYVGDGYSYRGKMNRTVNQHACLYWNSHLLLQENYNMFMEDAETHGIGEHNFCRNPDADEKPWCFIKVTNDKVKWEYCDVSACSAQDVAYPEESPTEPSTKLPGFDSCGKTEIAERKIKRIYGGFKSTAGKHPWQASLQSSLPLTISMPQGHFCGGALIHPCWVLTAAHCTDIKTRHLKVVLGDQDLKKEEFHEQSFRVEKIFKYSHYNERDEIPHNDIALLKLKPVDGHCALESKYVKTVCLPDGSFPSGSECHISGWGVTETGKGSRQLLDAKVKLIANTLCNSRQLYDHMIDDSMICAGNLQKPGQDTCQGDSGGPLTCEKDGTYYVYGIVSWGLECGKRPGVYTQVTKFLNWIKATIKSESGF
From the text: The contact pathway of blood coagulation is activated by negatively charged surfaces,[44] and we also tested whether it was involved in any way in the pro-FSAP activation process. […] The kallikrein inhibitor PKS1-527 had no effect,[43] but aprotinin, a general serine protease inhibitor, blocked pro-FSAP activation/activ ...

pro-FSAP in human plasma [2] = target: T1, pro-FSAP in human plasma; assay: Activation of endogenous pro-FSAP in plasma, fluorogenic substrate turnover; format: biochemical
Experimental: Human citrate plasma (0.38% w/v) or hirudin plasma (25 μg/mL Lepirudin) was obtained from five healthy donors. Plasma was diluted at 1:12 and mixed with various test substances that potentially activate or inhibit pro-FSAP. Ac–Ala–Lys–Nle–Arg–AMC (amino–methyl–coumarin) was used as a sensitive and specific substrate for FSAP.[35] Hydrolysis of the fluorogenic substrates was measured using a Synergy HI plate reader with excitation at 320 nm and emission at 460 nm at 37 °C for 60 min. The maximal velocity was calculated from the linear part of the progress curve. In limited experiments, the second-generation fluorogenic FSAP substrate (Ac–Pro–DTyr–Lys–Arg–AMC)[34] was used. Pro-uPA activation, formation of FSAP−α2-antiplasmin, and western blotting with anti-FSAP antibodies were also used to monitor pro-FSAP activation.

[3] = target: T2, pro-FSAP purified from human plasma (Homo sapiens, UniProt Q14520); assay: Pro-FSAP activation assay, purified pro-FSAP, chromogenic substrate S-2288; format: biochemical
T2 construct: Pro-FSAP was isolated from human plasma as described before; from tissue; host or cells: human plasma
T2 sequence (Q14520 24-560): as above
Experimental: Figure 1 Isolation of pro-FSAP binding peptides and their activity: (A) strategy to isolate high-affinity phages from the NNKC9 and NNK11 libraries that bind to pro-FSAP. To select for strong binders, an excess of free pro-FSAP protein was used for competitive elution of low-affinity binders. High-affinity binders retained on the beads were analyzed further. The sequences of major positive clones identified through an ELISA-based binding assay from the NNKC9 and NNK11 libraries are shown. (B) NNK11/189 and scrambled controls (0–50 μM) and histones (0–50 μg/mL) were added to purified pro-FSAP (1.0 μg/mL) and the turnover of the chromogenic substrate S-2288 (200 μM) was measured. (C) NNKC9/41 was compared to a peptide that was synthetically monocyclized (Cys–Cys cyclic), a peptide with Ser residues instead of Cys at both ends (Ser–Ser linear), a peptide with Ser residues at the end cyclized head to tail (Ser–Ser cyclic), and a scrambled peptide in a pro-FSAP activation assay. (D) Hirudin plasma (1:12 dilution) was incubated with histones (25 μg/mL), NNKC9/41, or Ser–Ser linear control (each, 25 μM), the fluorogenic substrate turnover (Ac–Ala–Lys–Nle–Arg–AMC) was monitored in duplicate wells, and results from a single well are shown. In panels (B) and (C), results are shown as mean + range (duplicate wells). Results were replicated with five different batches of NNKC9/41 (panels (B) and (C)).
Pro-FSAP was isolated from human plasma as described before.[14] The content of the zymogen form varied from 50% to 90% due to autoactivation during the purification process. Histones, isolated from the calf thymus, were obtained from Sigma-Aldrich (Oslo, Norway). FSAP activity assays were performed as described previously.[51] In brief, microtiter wells were blocked with TBS (25 mM Tris–HCl, pH 7.5, and 150 mM NaCl) containing 3% (w/v) BSA for 1 h and washed with TBS-T. The standard assay consisted of TBS-T with 0.3% (w/v) BSA and CaCl2 (2 mM) 1 μg/mL (15 nM) plasma purified pro-FSAP and 250 μM chromogenic substrate S-2288 (D-Ile-L-Pro-L-Arg-p-nitroaniline dihydrochloride) (Haemochrome Diagnostica, Essen, Germany) and was followed at 37 °C at 405 nm in a microplate reader Synergy HI plate reader (BioTek Instruments, Winooski). In some experiments, a fluorescent substrate of FSAP[35] was used.

purified pro-FSAP = conditions: heparin ref 13, 14; nucleic acids ref 15, 16; dextran sulfate ref 13; cited from earlier work
From the text: This leads to cleavag ...

EGF3 domain of FSAP = conditions: cited from earlier work
From the text: To identify the domain of FSAP responsible for binding to NNKC9/41, we expressed various domain deletion mutants of pro-FSAP as His-tagged proteins in E. coli as described before.[36] The N-terminus of pro- FSAP (heavy chain) consists of the intrinsically disordered N-terminal region (NTR), three EGF domains, and a kringle domain, whereas the C-terminal-light chain contains the serine protease domain (SPD) (Figure 2C). […] The recombinant proteins (Figure 2D) were captured on polyclonal FSAP an ...

[4] = hirudin plasma, Ac–Pro–DTyr–Lys–Arg–AMC (Fig S3)

Molecule: Cl.NCC1CCC(C(=O)N[C@@H](Cc2ccccc2)C(=O)Nc2ccc(CC(=O)O)cc2)CC1 (stereo partly shown) [PKS1-527]
effect of kallikrein inhibitor (pro-FSAP in human plasma [1]): had no effect

presence in HPLC fractions active in pro-FSAP activation (pro-FSAP in human plasma [2]; RP-HPLC fractions of NNKC9/41 tested in hirudin plasma, LC–MS (Fig S1)): found in all of the active fractions | maximal activity vs NNKC9/41 (pro-FSAP in human plasma [2]; [4]): slightly lower
Molecule: CRGAMWMYKRC (disulfide 1-11 (inferred)) [cyclic dimer, antiparallel cyclic dimer of NNKC9/41 through terminal Cys groups]
activity at higher concentrations (pro-FSAP in human plasma [2]; [4]): pronounced decrease in activity at higher concentrations

EC50 ([3]; purified pro-FSAP activation, S-2288, linear synthetic peptide stored under oxidative conditions, five batches): 8 to 15 µM
Molecule: CRGAMWMYKRC (not fully specified (N-terminus); also: oxidation gives mixture of Cys1-Cys11 monocycle and disulfide-linked antiparallel dimers) [NNKC9/41]

Molecule: IDCLMQNAGSA [NNK11/189]
effect on pro-FSAP activation ([3]; purified pro-FSAP 1.0 μg/mL, peptides 0–50 μM, histones 0–50 μg/mL, S-2288 (200 μM in legend b10, 250 μM in method b60), 37 °C, 405 nm, duplicate wells): did not have any effect on pro-FSAP activation

effect of inhibitor on pro-FSAP activation by the peptide (pro-FSAP in human plasma [2]; hirudin plasma 1:12, NNKC9/41 25 μM, CTI 80 μg/mL, aprotinin 100 μg/mL, MA-570 20 μg/mL, read-outs of Fig 4D–F (MA-FSAP-570 only Fig 4D,E)): blocked pro-FSAP activation/activity
Molecule: aprotinin [reference compound]

Molecule: dextran sulfate
activation of purified pro-FSAP (purified pro-FSAP): activate purified pro-FSAP

Molecule: heparin
activation of purified pro-FSAP (purified pro-FSAP): activate purified pro-FSAP | binding to the EGF3 domain (EGF3 domain of FSAP): binds to the EGF3 domain
